Laboratory results reported in patent US11578130B2, “Regulatable chimeric antigen receptor” (Novartis AG, priority 2013, dated 2023).

Key:
[1] = Clinical trial in elderly volunteers: adverse events, safety and tolerability; format: in vivo, human; conditions: for Blood cholesterol increased, treatment-related AE / Conjunctivitis, treatment-related AE / Diarrhea, treatment-related AE / Dry mouth, treatment-related AE / Dyspepsia, treatment-related AE / Erythema, treatment-related AE / Fatigue, treatment-related AE / Headache, treatment-related AE / Insomnia, treatment-related AE / Limb discomfort, treatment-related AE / Low density lipoprotein increased, treatment-related AE / Mouth ulceration, treatment-related AE / Mucosal inflammation, treatment-related AE / Neutropenia, treatment-related AE / Oral pain, treatment-related AE / Paresthesia oral, treatment-related AE / Patients with AE(s), treatment-related / Pruritus, treatment-related AE / Stomatitis, treatment-related AE / Thrombocytopenia, treatment-related AE / Tongue ulceration, treatment-related AE / Total AE(s), treatment-related / Urinary tract infection, treatment-related AE: N = 53
[2] = tested on: influenza vaccine strains; assay: Clinical trial: serologic response to 2012 seasonal influenza vaccine, primary endpoint across the 3 vaccine strains (HI GMT ratio); format: in vivo, human; conditions: for primary endpoint of the study (HI GMT ratio versus placebo): ITT population

With `CO[C@H]1C[C@@H]2CC[C@@H](C)[C@@](O)(O2)C(=O)C(=O)N2CCCC[C@H]2C(=O)O[C@H]([C@H](C)C[C@@H]2CC[C@@H](OCCO)[C@H](OC)C2)CC(=O)[C@H](C)/C=C(\C)[C@@H](O)[C@@H](OC)C(=O)[C@H](C)C[C@H](C)/C=C/C=C/C=C/1C` [RAD001, (1R,9S,12S,15R,16E,18R,19R,21R,23S,24E,26E,28E,30S,32S,35R)-1,18-dihydroxy-12-{(1R)-2-[(1S,3R,4R)-4-(2-hydroxyethoxy)-3-methoxycyclohexyl]-1-methylethyl}-19,30-dimethoxy-15,17,21,23,29,35-hexamethyl-11,36-dioxa-4-aza-tricyclo[30.3.1.04,9]hexatriaconta-16,24,26,28-tetraene-2,3,10,14,20-pentaone] the “Blood cholesterol increased, treatment-related AE” value (from here on “Blood cholesterol increased”) ([1]; RAD001 0.5 mg daily) was 2 (3.8%) n (%), the “Conjunctivitis, treatment-related AE” value ([1]; RAD001 0.5 mg daily) was 0 n (%) and the “Diarrhea, treatment-related AE” value ([1]; RAD001 0.5 mg daily) was 1 (1.9%) n (%). The “Dry mouth, treatment-related AE” value ([1]; RAD001 0.5 mg daily) was 0 n (%), the “Dyspepsia, treatment-related AE” value ([1]; RAD001 0.5 mg daily) was 0 n (%) and the “Erythema, treatment-related AE” value ([1]; RAD001 0.5 mg daily) was 0 n (%). For the same compound, the “Fatigue, treatment-related AE” value ([1]; RAD001 0.5 mg daily) was 0 n (%), the “Headache, treatment-related AE” value ([1]; RAD001 0.5 mg daily) was 0 n (%) and the “Insomnia, treatment-related AE” value ([1]; RAD001 0.5 mg daily) was 1 (1.9%) n (%). The “Limb discomfort, treatment-related AE” value ([1]; RAD001 0.5 mg daily) was 0 n (%), the “Low density lipoprotein increased, treatment-related AE” value (“Low density lipoprotein increased” below) ([1]; RAD001 0.5 mg daily) was 2 (3.8%) n (%) and the “Mouth ulceration, treatment-related AE” value ([1]; RAD001 0.5 mg daily) was 6 (11.3%) n (%). For the same compound, the “Mucosal inflammation, treatment-related AE” value (“Mucosal inflammation” for short) ([1]; RAD001 0.5 mg daily) was 0 n (%), the “Neutropenia, treatment-related AE” value ([1]; RAD001 0.5 mg daily) was 0 n (%) and the “Oral pain, treatment-related AE” value ([1]; RAD001 0.5 mg daily) was 0 n (%). The “Paresthesia oral, treatment-related AE” value ([1]; RAD001 0.5 mg daily) was 2 (3.8%) n (%), the “Patients with AE(s), treatment-related” value ([1]; RAD001 0.5 mg daily) was 22 (41.5%) n (%) and the “Pruritus, treatment-related AE” value ([1]; RAD001 0.5 mg daily) was 0 n (%). For the same compound, the “Stomatitis, treatment-related AE” value ([1]; RAD001 0.5 mg daily) was 0 n (%), the “Thrombocytopenia, treatment-related AE” value ([1]; RAD001 0.5 mg daily) was 0 n (%) and the “Tongue ulceration, treatment-related AE” value ([1]; RAD001 0.5 mg daily) was 3 (5.7%) n (%). The “Total AE(s), treatment-related” value ([1]; RAD001 0.5 mg daily) was 35 n (%), the “Urinary tract infection, treatment-related AE” value (“Urinary tract infection” for short) ([1]; RAD001 0.5 mg daily) was 0 n (%) and the “Blood cholesterol increased” value ([1]; RAD001 5 mg weekly) was 2 (3.8%) n (%). For the same compound, the “Conjunctivitis, treatment-related AE” value ([1]; RAD001 5 mg weekly) was 2 (3.8%) n (%), the “Diarrhea, treatment-related AE” value ([1]; RAD001 5 mg weekly) was 4 (7.5%) n (%) and the “Dry mouth, treatment-related AE” value ([1]; RAD001 5 mg weekly) was 0 n (%). The “Dyspepsia, treatment-related AE” value ([1]; RAD001 5 mg weekly) was 3 (5.7%) n (%), the “Erythema, treatment-related AE” value ([1]; RAD001 5 mg weekly) was 2 (3.8%) n (%) and the “Fatigue, treatment-related AE” value ([1]; RAD001 5 mg weekly) was 2 (3.8%) n (%). The “Headache, treatment-related AE” value ([1]; RAD001 5 mg weekly) was 2 (3.8%) n (%), the “Insomnia, treatment-related AE” value ([1]; RAD001 5 mg weekly) was 2 (3.8%) n (%) and the “Limb discomfort, treatment-related AE” value ([1]; RAD001 5 mg weekly) was 2 (3.8%) n (%). For the same compound, the “Low density lipoprotein increased” value ([1]; RAD001 5 mg weekly) was 1 (1.9%) n (%), the “Mouth ulceration, treatment-related AE” value ([1]; RAD001 5 mg weekly) was 2 (3.8%) n (%) and the “Mucosal inflammation” value ([1]; RAD001 5 mg weekly) was 0 n (%). For the same compound, the “Neutropenia, treatment-related AE” value ([1]; RAD001 5 mg weekly) was 0 n (%), the “Oral pain, treatment-related AE” value ([1]; RAD001 5 mg weekly) was 2 (3.8%) n (%) and the “Paresthesia oral, treatment-related AE” value ([1]; RAD001 5 mg weekly) was 0 n (%). The “Patients with AE(s), treatment-related” value ([1]; RAD001 5 mg weekly) was 20 (37.7%) n (%), the “Pruritus, treatment-related AE” value ([1]; RAD001 5 mg weekly) was 2 (3.8%) n (%) and the “Stomatitis, treatment-related AE” value ([1]; RAD001 5 mg weekly) was 0 n (%). The “Thrombocytopenia, treatment-related AE” value ([1]; RAD001 5 mg weekly) was 0 n (%), the “Tongue ulceration, treatment-related AE” value ([1]; RAD001 5 mg weekly) was 1 (1.9%) n (%) and the “Total AE(s), treatment-related” value ([1]; RAD001 5 mg weekly) was 46 n (%). For the same compound, the “Urinary tract infection” value ([1]; RAD001 5 mg weekly) was 0 n (%), the “Blood cholesterol increased” value ([1]; RAD001 20 mg weekly) was 2 (3.8%) n (%) and the “Conjunctivitis, treatment-related AE” value ([1]; RAD001 20 mg weekly) was 0 n (%). The “Diarrhea, treatment-related AE” value ([1]; RAD001 20 mg weekly) was 1 (1.9%) n (%), the “Dry mouth, treatment-related AE” value ([1]; RAD001 20 mg weekly) was 2 (3.8%) n (%) and the “Dyspepsia, treatment-related AE” value ([1]; RAD001 20 mg weekly) was 2 (3.8%) n (%). The “Erythema, treatment-related AE” value ([1]; RAD001 20 mg weekly) was 0 n (%), the “Fatigue, treatment-related AE” value ([1]; RAD001 20 mg weekly) was 4 (7.5%) n (%) and the “Headache, treatment-related AE” value ([1]; RAD001 20 mg weekly) was 9 (17.0%) n (%). For the same compound, the “Insomnia, treatment-related AE” value ([1]; RAD001 20 mg weekly) was 1 (1.9%) n (%), the “Limb discomfort, treatment-related AE” value ([1]; RAD001 20 mg weekly) was 0 n (%) and the “Low density lipoprotein increased” value ([1]; RAD001 20 mg weekly) was 2 (3.8%) n (%). For the same compound, the “Mouth ulceration, treatment-related AE” value ([1]; RAD001 20 mg weekly) was 9 (17.0%) n (%), the “Mucosal inflammation” value ([1]; RAD001 20 mg weekly) was 2 (3.8%) n (%) and the “Neutropenia, treatment-related AE” value ([1]; RAD001 20 mg weekly) was 3 (5.7%) n (%). For the same compound, the “Oral pain, treatment-related AE” value ([1]; RAD001 20 mg weekly) was 1 (1.9%) n (%), the “Paresthesia oral, treatment-related AE” value ([1]; RAD001 20 mg weekly) was 0 n (%) and the “Patients with AE(s), treatment-related” value ([1]; RAD001 20 mg weekly) was 27 (50.9%) n (%). The “Pruritus, treatment-related AE” value ([1]; RAD001 20 mg weekly) was 1 (1.9%) n (%), the “Stomatitis, treatment-related AE” value ([1]; RAD001 20 mg weekly) was 2 (3.8%) n (%) and the “Thrombocytopenia, treatment-related AE” value ([1]; RAD001 20 mg weekly) was 2 (3.8%) n (%). The “Tongue ulceration, treatment-related AE” value ([1]; RAD001 20 mg weekly) was 0 n (%), the “Total AE(s), treatment-related” value ([1]; RAD001 20 mg weekly) was 109 n (%) and the “Urinary tract infection” value ([1]; RAD001 20 mg weekly) was 2 (3.8%) n (%). The tolerability ([1]; elderly volunteers, 6 weeks, particularly 0.5 mg daily and 5 mg weekly dosing regimens) was “well tolerated”, the “number of severe AEs assessed as related to RAD001 (mouth ulcers)” value ([1]; subject treated with 20 mg weekly RAD001) was “one” and the “primary endpoint of the study (HI GMT ratio versus placebo)” value ([2]; RAD001 0.5 mg daily or 5 mg weekly) was “met the GMT primary endpoint”. The “primary endpoint of the study (HI GMT ratio versus placebo)” value ([2]; RAD001 20 mg weekly) was “but not higher dose (20 mg weekly) cohort met the primary endpoint” and the “increase in influenza titers in subgroup” value ([2]; human, in vivo) was “greater RAD001-associated increase in titers than did the ITT population”.
